Assay [1] deals with Gaeumannomycesgraminisvar. tritici. As to the kind of experiment: Mycelial growth assay (virulence test) of single agents and mixtures, Wadley method. To be noted: mycelial growth on medicated medium, 25° C.; ratio G:D = silothiamine:coumoxystrobin. It counts as cell-based. How it is done: The bactericidal properties of silthiopham and coumoxystrobin are analyzed in detail. First, the EC50 ([…]) of the two single compounds of silthiostrobin and coumoxystrobin is determined. According to the EC50 of the two single drugs, the combination ratio of the two drugs is determined according to the Wadley method, and synergy coefficient SR value according to Wadley.
The test target is Gaeumannomycesgraminisvar. tritici, which causes wheat rot disease, but it is not limited to this. Silthiopham and coumoxystrobin are taken and prepared into a liquid plate about 15 ml per dish. At the edge of the pre-cultured colony, a 5 mm diameter hyphae block is prepared with a sterile puncher, and then transferred to different medium plates and cultured at 25° C. The test adopts the mycelial growth assay method, and prepares medicated medium according to different treatments. At the edge of the pre-cultured colony, a 5 mm diameter hyphae block is prepared with a sterile puncher, and then transferred to medium plates with different drug contents. […]
According to the Wadley method to evaluate the interaction of the mixture, the calculation formula is as follows: EC50(theoretical value)=(a+b)/(a/EC50a+b/EC50b), SR=EC50(theoretical value)/EC50(actual value). wherein, a and b are the content ratio of each component in the mixture, and the effect of mixing is analyzed by SR value. […]

In assay [2] the test system is wheat seeds. As to the kind of experiment: Seed soaking test: emergence rate and seedling stage of wheat seeds. To be noted: seed soaking seed:drug solution=1:2, 20 minutes, after 40 days, compound sodium nitrophenolate at 0.05%, salicylic acid at 0.01%. The assay is classed as in vivo, wheat variety "An Nong 0711". How it is done: Seed initiator composition 1 with a measured content of 0.06% (compound sodium nitrophenolate 0.05%, salicylic acid 0.01%, the balance water) was diluted 10 times to form seed initiator composition 2 with a content of 0.006% (compound sodium nitrophenolate 0.005%, salicylic acid 0.001%, the balance water). The seed initiator composition 2 was treated with 0.05% compound sodium nitrophenolate, 0.01% salicylic acid and distilled water as a control. The effect on […] seed vigor was determined according to the above compositions. The experimental wheat variety was “An Nong 0711”, and the experiment was carried out in the experimental base of Anhui Academy of Agricultural Sciences. Seed soaking is carried out according to the weight ratio of seed:drug solution=1:2. After soaking for 20 minutes, sowing in the shade and drying in the shade, the seedling emergence rate, plant height, root length and fresh weight are calculated after 40 days.

For `CCCCc1c(C)c2ccc(OCc3ccccc3/C(=C\OC)C(=O)OC)cc2oc1=O` [Coumoxystrobin(D), (E)-2-(2-(3-n-butyl-4methyl-coumarin-7-yloxy)methylphenyl)-3-methoxy Methyl acrylate], in assay [1], the EC50 stood at 2.3127 ppm.

Take `O=C(O)c1ccccc1O` [Salicylic acid]: the “Fresh weight (10 plants, g)” value in assay [2] (10 plants) was 1.28 ± 0.17 g. For the same molecule, in assay [2], the Emergence rate is recorded as 83.8%, the Plant height is recorded as 10.5 ± 1.7 cm and the Root length amounted to 4.8 ± 1.3 cm.

Regarding `C=CCNC(=O)c1c([Si](C)(C)C)sc(C)c1C` [Silothiamine(G), N-allyl-4,5-dimethyl-2-(trimethylsilyl) thiophene-3-carboxamide], the EC50 in assay [1] was 0.6893 ppm.
